According to patent publication US20010041733A1, “Heterocyclic ester and amide hair growth compositions and uses” (GPI NIL Holdings, Inc., priority 1998, published 2001):

Tests used:
[1] = molecular target: FKBP12 (Homo sapiens, UniProt P62942); assay: Ki test procedure: inhibition of peptidyl-prolyl isomerase (rotamase) activity, chymotrypsin-coupled assay; type: biochemical; details: substrate N-succinyl-Ala-Ala-Pro-Phe-p-nitroanilide, read-out: Ki (apparent)
Source text: The compounds used in the inventive methods and pharmaceutical compositions have an affinity for the inhibition of the prolyl peptidyl cis-trans isomerase activity of FKBP may be measured as an indicator of this affinity.
Inhibition of the peptidyl-prolyl isomerase (rotamase) activity of the compounds used in the inventive methods and pharmaceutical compositions can be evaluated by known methods described in the literature (Harding et al., Nature, […], 341:758-760; Holt et al. J. Am. Chem. Soc., 115:9923-9938). These values are obtained as apparent K1's and are presented for representative compounds in TABLE III.
The cis-trans isomerization of an alanine-proline bond in a model substrate, N-succinyl-Ala-Ala-Pro-Phe-p-nitroanilide, is monitored spectrophotometrically in a chymotrypsin-coupled assay, which releases para-nitroanilide from the trans form of the substrate. The inhibition of this reaction caused by the addition of different concentrations of inhibitor is determined, and the data is analyzed as a change in first-order rate constant as a function of inhibitor concentration to yield the apparerent K1, values. […]
The absorbance at 390 nm versus time is monitored for 90 seconds using a spectrophotometer and the rate constants are determined from the absorbance versus time data files.

[2] = tested on: C57 black 6 mice; assay: In vivo hair generation test, Experiment A; details: 30 μM topical in 20% propylene glycol, 3 applications, after six weeks
Source text: Care was taken not to nick or cause abrasion to the underlaying dermal layers. The animals were in anagen growth phase, as indicated by the pinkish color of the skin. […] Hair growth was quantitated by the percent of shaved area covered by new hair growth during this time period.

[3] = tested on: C57 black 6 mice; assay: In vivo hair generation test, Experiment B; details: one micromole per milliliter topical, three times per week, 14 days after initiation of treatment
Protocol: Care was taken not to nick or cause abrasion to the underlying dermal layers. The animals were in a […] growth phase when shaved. […] The animals were treated three times per week, and hair growth was evaluated 14 days after initiation of treatment.

Chain of FKBP12 (P62942 whole entry): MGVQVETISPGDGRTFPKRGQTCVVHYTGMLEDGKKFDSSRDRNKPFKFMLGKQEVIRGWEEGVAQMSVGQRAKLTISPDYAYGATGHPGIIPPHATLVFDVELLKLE

| SMILES | Ki [1] [µM] | also measured |
| --- | --- | --- |
| CCC(C)(C)C(=O)C(=O)N1CSC[C@@H]1C(=O)OCCCc1ccccc1 [Compound 1, 3-phenyl-1-propyl (2S)-1-(3,3-dimethyl-1,2-dioxopentyl)-2-(4-thiazolidine)carboxylate] | 0.215 | – |
| CCC(C)(C)C(=O)C(=O)N1CSC[C@@H]1C(=O)OCCCc1cccnc1 [Compound 2, 3-(3-pyridyl)-1-propyl (2S)-1-(3,3-dimethyl-1,2-dioxopentyl)-2-(4-thiazolidine) carboxylate] | 0.638 | – |
| CCC(C)(C)C(=O)C(=O)N1CCC[C@H]1C(=O)OCCCc1cccnc1 [GPI 1046] | – | hair regrowth in the shaved area [2]: essentially complete hair regrowth |
| CCC(C)(C)C(=O)C(=O)N1CCS[C@@H]1C(=O)OCCCc1cccnc1 [GPI 1572] | – | hair growth (relative hair growth index, FIG. 5) [3]: dramatic hair growth |
